Measured values from PubChem BioAssay AID330 (DTP/NCI, 2004).
Where “and” joins values, the source holds several entries; their conditions need not be identical. Identical values can stand only once. Inconclusive results and toxic doses are left out.

Tested on: P388 leukemia ip, CD2F1 mice, survival T/C
Assay: NCI In Vivo Anticancer Drug Screen. Data for tumor model P388 Leukemia (intraperitoneal) in CD2F1 (CDF1) mice
Settings: endpoint: median survival time, higher = longer survival
Method in brief: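 Mice carrying the transplanted tumor received test compound or vehicle. Survival was recorded in each group, and the value is the treated-group measurement divided by that of the vehicle-treated control group.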

[1] = dose: 50.0 mg/kg/injection, schedule: Q01DX009 (ip), vehicle: saline with Tween-80
[2] = dose: 50.0 mg/kg/injection, schedule: Q01DX009 (ip), vehicle: saline
[3] = dose: 25.0 mg/kg/injection, schedule: Q01DX009 (ip), vehicle: Klucel (hydroxypropylcellulose) (HPC)
[4] = dose: 50.0 mg/kg/injection, schedule: Q01DX009 (ip), vehicle: Klucel (hydroxypropylcellulose) (HPC)
[5] = dose: 100.0 mg/kg/injection, schedule: Q01DX009 (ip), vehicle: Klucel (hydroxypropylcellulose) (HPC)
[6] = dose: 200.0 mg/kg/injection, schedule: Q01DX009 (ip), vehicle: Klucel (hydroxypropylcellulose) (HPC)
[7] = dose: 100.0 mg/kg/injection, schedule: Q04DX003 (ip), vehicle: saline
[8] = dose: 200.0 mg/kg/injection, schedule: Q04DX003 (ip), vehicle: saline
[9] = dose: 400.0 mg/kg/injection, schedule: Q04DX003 (ip), vehicle: saline

Structure (SMILES): CN(C)c1ccc2nc3ccc(=O)cc-3sc2c1
- T/C (dose: 12.5 mg/kg/injection, schedule: Q01DX009 (ip), vehicle: saline with Tween-80): 100 % of control
- T/C (dose: 25.0 mg/kg/injection, schedule: Q01DX009 (ip), vehicle: saline with Tween-80): 108 % of control
- T/C [1]: 108 % of control
- T/C (dose: 100.0 mg/kg/injection, schedule: Q01DX009 (ip), vehicle: saline with Tween-80): 120 % of control and 122 % of control

Structure (SMILES): COC(=O)/C=C(\C(=O)OC)C(C(C)=O)C(C)=NCCN=C(C)C(C(C)=O)/C(=C/C(=O)OC)C(=O)OC.[Cu] (stereo not given)
- T/C (dose: 25.0 mg/kg/injection, schedule: Q04DX003 (ip), vehicle: Klucel (hydroxypropylcellulose) (HPC)): 98 % of control
- T/C (dose: 50.0 mg/kg/injection, schedule: Q04DX003 (ip), vehicle: Klucel (hydroxypropylcellulose) (HPC)): 103 % of control
- T/C (dose: 100.0 mg/kg/injection, schedule: Q04DX003 (ip), vehicle: Klucel (hydroxypropylcellulose) (HPC)): 107 % of control and 117 % of control

Structure (SMILES): CC(=O)c1c(C)oc(C)c1-c1ccc2c(c1)OCO2
- T/C (dose: 60.0 mg/kg/injection, schedule: Q01DX005 (ip), vehicle: Klucel (hydroxypropylcellulose) (HPC)): 108 % of control
- T/C (dose: 120.0 mg/kg/injection, schedule: Q01DX005 (ip), vehicle: Klucel (hydroxypropylcellulose) (HPC)): 103 % of control
- T/C (dose: 240.0 mg/kg/injection, schedule: Q01DX005 (ip), vehicle: Klucel (hydroxypropylcellulose) (HPC)): 104 % of control

Structure (SMILES): NC(=O)Cc1[nH]ccc1C(=O)O
- T/C (dose: 100.0 mg/kg/injection, schedule: Q01DX001 (ip), vehicle: saline with Tween-80): 103 % of control
- T/C (dose: 200.0 mg/kg/injection, schedule: Q01DX001 (ip), vehicle: saline with Tween-80): 97 % of control
- T/C (dose: 400.0 mg/kg/injection, schedule: Q01DX001 (ip), vehicle: saline with Tween-80): 97 % of control

Structure (SMILES): COc1ccc(Cc2cc(C(C)(C)C)c(O)c(C(C)(C)C)c2)cc1
- T/C (dose: 50.0 mg/kg/injection, schedule: Q01DX005 (ip), vehicle: distilled water + alcohol): 104 % of control
- T/C (dose: 100.0 mg/kg/injection, schedule: Q01DX005 (ip), vehicle: distilled water + alcohol): 100 % of control
- T/C (dose: 200.0 mg/kg/injection, schedule: Q01DX005 (ip), vehicle: distilled water + alcohol): 93 % of control

Structure (SMILES): O=C(O)CSC(c1ccccc1)(c1ccc(-c2ccccc2)cc1)c1cccc2ccccc12 (stereo not given)
- T/C (dose: 50.0 mg/kg/injection, schedule: Q01DX005 (ip), vehicle: saline with Tween-80): 95 % of control
- T/C (dose: 100.0 mg/kg/injection, schedule: Q01DX005 (ip), vehicle: saline with Tween-80): 109 % of control
- T/C (dose: 200.0 mg/kg/injection, schedule: Q01DX005 (ip), vehicle: saline with Tween-80): 109 % of control

Structure (SMILES): COc1ccc(C2CC(=O)C(C)C(c3ccc(OC)cc3)N2)cc1 (stereo not given)
- T/C [2]: 100 % of control
- T/C (dose: 100.0 mg/kg/injection, schedule: Q01DX009 (ip), vehicle: saline): 104 % of control
- T/C (dose: 200.0 mg/kg/injection, schedule: Q01DX009 (ip), vehicle: saline): 100 % of control

Structure (SMILES): N=C(N)c1ccc2nc(/C=C\c3nc4ccc(C(=N)N)cc4[nH]3)[nH]c2c1
- T/C (dose: 100.0 mg/kg/injection, schedule: Q04DX002 (ip), vehicle: saline): 110 % of control
- T/C (dose: 200.0 mg/kg/injection, schedule: Q04DX002 (ip), vehicle: saline): 117 % of control

Structure (SMILES): CCCC1CN2CCc3cc(OC)c(OC)cc3C2C/C1=C/C(=O)OCC (stereo not given)
- T/C (dose: 12.5 mg/kg/injection, schedule: Q01DX009 (ip), vehicle: saline): 90 % of control
- T/C (dose: 25.0 mg/kg/injection, schedule: Q01DX009 (ip), vehicle: saline): 92 % of control
- T/C [1]: 90 % of control
- T/C [2]: 96 % of control
- T/C (dose: 200.0 mg/kg/injection, schedule: Q01DX009 (ip), vehicle: saline with Tween-80): 89 % of control

Structure (SMILES): Cc1[nH]c(=O)[nH]c(=O)c1/C=C/C(=O)O
- T/C [3]: 100 % of control
- T/C [4]: 100 % of control
- T/C [5]: 102 % of control
- T/C [6]: 102 % of control

Structure (SMILES): CC1=NN(C)C(=O)C1
- T/C (dose: 50.0 mg/kg/injection, schedule: Q04DX003 (ip), vehicle: saline): 102 % of control
- T/C [7]: 101 % of control
- T/C [8]: 104 % of control
- T/C [9]: 111 % of control

Structure (SMILES): CCOc1cc2c(C)c3ccccc3c(C)c2c2ccccc12
- T/C (dose: 42.0 mg/kg/injection, schedule: Q01DX009 (ip), vehicle: saline with Tween-80): 98 % of control
- T/C (dose: 50.0 mg/kg/injection, schedule: Q04DX003 (ip), vehicle: other): 88 % of control
- T/C (dose: 84.0 mg/kg/injection, schedule: Q01DX009 (ip), vehicle: saline with Tween-80): 94 % of control
- T/C (dose: 100.0 mg/kg/injection, schedule: Q04DX003 (ip), vehicle: other): 86 % of control
- T/C (dose: 168.0 mg/kg/injection, schedule: Q01DX009 (ip), vehicle: saline with Tween-80): 107 % of control
- T/C (dose: 400.0 mg/kg/injection, schedule: Q04DX003 (ip), vehicle: other): 86 % of control

Structure (SMILES): Cc1ccc(C(O)(c2ccc(C)cc2)C2(O)CCN(C)CC2)cc1
- T/C (dose: 50.0 mg/kg/injection, schedule: Q01DX005 (ip), vehicle: Klucel (hydroxypropylcellulose) (HPC)): 107 % of control
- T/C (dose: 100.0 mg/kg/injection, schedule: Q01DX005 (ip), vehicle: Klucel (hydroxypropylcellulose) (HPC)): 97 % of control
- T/C (dose: 200.0 mg/kg/injection, schedule: Q01DX005 (ip), vehicle: Klucel (hydroxypropylcellulose) (HPC)): 92 % of control

Structure (SMILES): O=C(Nc1ccc(C2=NCCN2)cc1)c1ccc(C(=O)Nc2ccc(C3=NCCN3)cc2)c(Cl)c1
- T/C (dose: 0.2 mg/kg/injection, schedule: Q01DX009 (ip), vehicle: saline with Tween-80): 99 % of control
- T/C (dose: 0.39 mg/kg/injection, schedule: Q01DX009 (ip), vehicle: saline with Tween-80): 117 % of control
- T/C (dose: 0.78 mg/kg/injection, schedule: Q01DX009 (ip), vehicle: saline with Tween-80): 122 % of control
- T/C (dose: 20.0 mg/kg/injection, schedule: Q01DX010 (ip), vehicle: water): 163 % of control
- T/C (dose: 45.0 mg/kg/injection, schedule: Q04DX003 (ip), vehicle: saline): 95 % of control

Structure (SMILES): NC(N)=NS(=O)(=O)c1ccccc1[N+](=O)[O-]
- T/C (dose: 7.5 mg/kg/injection, schedule: Q01DX009 (ip), vehicle: saline with Tween-80): 106 % of control
- T/C (dose: 15.0 mg/kg/injection, schedule: Q01DX009 (ip), vehicle: saline with Tween-80): 113 % of control
- T/C (dose: 30.0 mg/kg/injection, schedule: Q01DX009 (ip), vehicle: saline with Tween-80): 120 % of control

Structure (SMILES): O=C1CCC(N2C(=O)C3C4CCC(O4)C3C2=O)C(=O)N1 (stereo not given)
- T/C (dose: 60.0 mg/kg/injection, schedule: Q01DX005 (ip), vehicle: saline with Tween-80): 101 % of control
- T/C (dose: 120.0 mg/kg/injection, schedule: Q01DX005 (ip), vehicle: saline with Tween-80): 94 % of control
- T/C (dose: 240.0 mg/kg/injection, schedule: Q01DX005 (ip), vehicle: saline with Tween-80): 100 % of control

Structure (SMILES): N#CC1(C#N)C2C=CC(C3CCC=C32)C1(C#N)C#N (stereo not given)
- T/C (dose: 6.25 mg/kg/injection, schedule: Q01DX009 (ip), vehicle: Klucel (hydroxypropylcellulose) (HPC)): 100 % of control
- T/C (dose: 12.5 mg/kg/injection, schedule: Q01DX009 (ip), vehicle: Klucel (hydroxypropylcellulose) (HPC)): 110 % of control
- T/C [3]: 106 % of control

Structure (SMILES): COc1cccc2c1C(=O)c1c(O)c3c(c(O)c1C2=O)C[C@@](O)(C(O)CO)C[C@@H]3OC1CC(NC(=O)C(F)(F)F)C(O)C(C)O1 (stereo not given in full)
- T/C (dose: 25.0 mg/kg/injection, schedule: Q01DX009 (ip), vehicle: other): 151 % of control and 152 % of control

Structure (SMILES): O=C1C2C3C=CC(C2C(=O)N1COP(=O)(OCc1ccccc1)OCc1ccccc1)C1C2C(=O)N(COP(=O)(OCc4ccccc4)OCc4ccccc4)C(=O)C2C31 (stereo not given)
- T/C (dose: 6.25 mg/kg/injection, schedule: Q01DX009 (ip), vehicle: saline + Tween-80 + alcohol): 99 % of control
- T/C (dose: 12.5 mg/kg/injection, schedule: Q01DX009 (ip), vehicle: saline + Tween-80 + alcohol): 105 % of control
- T/C (dose: 25.0 mg/kg/injection, schedule: Q01DX009 (ip), vehicle: saline + Tween-80 + alcohol): 103 % of control
- T/C (dose: 50.0 mg/kg/injection, schedule: Q01DX009 (ip), vehicle: saline + Tween-80 + alcohol): 106 % of control
- T/C (dose: 75.0 mg/kg/injection, schedule: Q01DX008 (ip), vehicle: saline + Tween-80 + alcohol): 109 % of control
- T/C (dose: 100.0 mg/kg/injection, schedule: Q01DX009 (ip), vehicle: saline + Tween-80 + alcohol): 107 % of control
- T/C (dose: 150.0 mg/kg/injection, schedule: Q01DX008 (ip), vehicle: saline + Tween-80 + alcohol): 99 % of control
- T/C (dose: 300.0 mg/kg/injection, schedule: Q01DX008 (ip), vehicle: saline + Tween-80 + alcohol): 100 % of control

Structure (SMILES): O=C1CC(c2ccccc2)C(c2ccccc2)C1 (stereo not given)
- T/C [4]: 94 % of control
- T/C [5]: 97 % of control
- T/C [6]: 93 % of control

Structure (SMILES): NC(=O)NNC(=O)NNC(N)=O
- T/C [7]: 98 % of control
- T/C [8]: 96 % of control
- T/C [9]: 106 % of control
